# Laboratory results published in patent US20260297542A1, “HERBICIDE RESISTANT PLANTS” (SYNGENTA CROP PROTECTION AG, priority 2023, published 2026).
# Changes are numbered by the printed parent chain.
# Experiments:
# Test in all cases: E. coli hemG growth inhibition by herbicide, AtPPO1 variant
# Format in all cases: cell-based
# Settings in all cases: read-out: percentage growth inhibition
# [1] = molecular target: T1, AtPPO1 E111F (Arabidopsis thaliana, UniProt P55826, E111F)
# T1 construct: expressed in transfected cells; host or cells: E. coli BL21(DE3) hemG (hemG replaced by CmR), pET24a plasmid
# T1 sequence (P55826 35-537 E111F): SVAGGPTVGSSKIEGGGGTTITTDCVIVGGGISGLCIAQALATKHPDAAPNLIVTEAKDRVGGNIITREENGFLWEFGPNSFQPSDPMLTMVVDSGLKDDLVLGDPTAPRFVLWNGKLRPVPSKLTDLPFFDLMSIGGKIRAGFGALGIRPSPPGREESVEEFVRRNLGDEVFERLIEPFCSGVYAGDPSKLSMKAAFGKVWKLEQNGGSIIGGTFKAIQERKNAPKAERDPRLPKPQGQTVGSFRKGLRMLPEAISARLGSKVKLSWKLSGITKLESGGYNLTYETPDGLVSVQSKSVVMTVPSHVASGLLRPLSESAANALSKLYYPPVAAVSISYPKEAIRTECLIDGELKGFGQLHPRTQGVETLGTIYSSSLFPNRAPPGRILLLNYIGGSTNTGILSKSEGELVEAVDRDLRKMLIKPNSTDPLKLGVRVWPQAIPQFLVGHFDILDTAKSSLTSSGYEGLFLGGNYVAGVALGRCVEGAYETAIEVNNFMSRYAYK
# Outline: (§1)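 Read-out is OD600 at 24 h post inoculation, converted to percent growth inhibition relative to DMSO. The hemG-deleted BL21(DE3) host relied on the plasmid-borne AtPPO1 variant, induced with 0.1 mM IPTG, with 6.25 ppm herbicide 0 or E or 0.78 ppm herbicide B present at 37° C.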
# [2] = molecular target: T2, AtPPO1 G481N (Arabidopsis thaliana, UniProt P55826, G481N)
# T2 construct: expressed in transfected cells; host or cells: E. coli BL21(DE3) hemG, pET24a plasmid
# T2 sequence (P55826 35-537 G481N): T1 sequence (P55826 35-537 E111F) with F77E, G447N
# Outline: as §1
# [3] = molecular target: T3, AtPPO1 L479M (Arabidopsis thaliana, UniProt P55826, L479M)
# T3 construct: expressed in transfected cells; host or cells: E. coli BL21(DE3) hemG, pET24a plasmid
# T3 sequence (P55826 35-537 L479M): T1 sequence (P55826 35-537 E111F) with F77E, L445M
# Outline: as §1
# [4] = molecular target: T4, AtPPO1 P154Y (Arabidopsis thaliana, UniProt P55826, P154Y)
# T4 construct: expressed in transfected cells; host or cells: E. coli BL21(DE3) hemG (hemG replaced by CmR), pET24a plasmid
# T4 sequence (P55826 35-537 P154Y): T1 sequence (P55826 35-537 E111F) with F77E, P120Y
# Outline: as §1
compound,measurement,setting,value
"C#CCN1C(=O)C(F)(F)Oc2cc(F)c(-n3c(=O)n(C)c(=S)n(C)c3=O)cc21 [Herbicide B, trifludimoxazin]",inhibition at 0.78 ppm,[1],27%
same,inhibition at 0.78 ppm,[2],44%
same,inhibition at 0.78 ppm,[3],29%
same,inhibition at 0.78 ppm,[4],34%
"CCOC(=O)[C@]1(C)CC(c2cc(-n3c(=O)n(C)c(=S)n(C)c3=O)c(F)cc2Cl)=NO1 [Herbicide D, ethyl (5S)-3-[2-chloro-5-(3,5-dimethyl-2,6-dioxo-4-thioxo-1,3,5-triazinan-1-yl)-4-fluoro-phenyl]-5-methyl-4H-isoxazole-5-carboxylate]",inhibition at 6.25 ppm,[1],29%
same,inhibition at 6.25 ppm,[2],14%
same,inhibition at 6.25 ppm,[3],4%
same,inhibition at 6.25 ppm,[4],38%
"CC(C)N(C)S(=O)(=O)NC(=O)c1cc(-n2c(=O)cc(C(F)(F)F)n(C)c2=O)c(F)cc1Cl [Herbicide E, saflufenacil]",inhibition at 6.25 ppm,[1],66%
same,inhibition at 6.25 ppm,[2],4%
same,inhibition at 6.25 ppm,[3],28%
same,inhibition at 6.25 ppm,[4],68%
